{"source": "ChEMBL document CHEMBL1201862", "about": "“PubChem BioAssay data set” (2004)", "key": {"[1]": {"target": "MAP/microtubule affinity-regulating kinase 3 (Homo sapiens, UniProt P27448)", "assay_type": "functional"}, "[2]": {"target": "Mitogen-activated protein kinase kinase kinase kinase 2 (Homo sapiens, UniProt Q12851)", "sequence (Q12851 whole entry)": "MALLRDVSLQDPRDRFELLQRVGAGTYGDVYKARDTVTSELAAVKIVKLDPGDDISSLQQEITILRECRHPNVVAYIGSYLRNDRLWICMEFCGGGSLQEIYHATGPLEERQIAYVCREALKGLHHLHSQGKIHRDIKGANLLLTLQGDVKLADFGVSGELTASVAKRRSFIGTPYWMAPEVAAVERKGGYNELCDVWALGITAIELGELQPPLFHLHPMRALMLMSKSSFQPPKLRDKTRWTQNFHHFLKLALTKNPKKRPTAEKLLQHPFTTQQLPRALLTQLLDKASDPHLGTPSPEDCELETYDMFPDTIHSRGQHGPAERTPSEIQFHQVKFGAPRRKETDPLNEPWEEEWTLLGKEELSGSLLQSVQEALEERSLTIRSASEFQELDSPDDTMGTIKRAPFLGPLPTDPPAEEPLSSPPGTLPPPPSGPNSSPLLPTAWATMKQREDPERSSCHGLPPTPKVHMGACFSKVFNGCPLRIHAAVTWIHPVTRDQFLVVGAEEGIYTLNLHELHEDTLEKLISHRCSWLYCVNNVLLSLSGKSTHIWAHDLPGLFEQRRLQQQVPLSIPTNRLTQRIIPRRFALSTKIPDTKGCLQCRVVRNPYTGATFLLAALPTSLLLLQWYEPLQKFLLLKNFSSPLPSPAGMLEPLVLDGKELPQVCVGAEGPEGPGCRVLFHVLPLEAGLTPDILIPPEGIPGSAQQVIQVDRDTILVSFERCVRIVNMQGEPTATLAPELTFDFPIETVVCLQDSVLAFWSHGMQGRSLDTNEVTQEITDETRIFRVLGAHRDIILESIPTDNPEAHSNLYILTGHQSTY", "assay_type": "functional"}, "[3]": {"target": "Death-associated protein kinase 3 (Homo sapiens, UniProt O43293)", "assay_type": "functional"}, "[4]": {"target": "Mitogen-activated protein kinase 8 (Homo sapiens, UniProt P45983)", "sequence (P45983 whole entry)": "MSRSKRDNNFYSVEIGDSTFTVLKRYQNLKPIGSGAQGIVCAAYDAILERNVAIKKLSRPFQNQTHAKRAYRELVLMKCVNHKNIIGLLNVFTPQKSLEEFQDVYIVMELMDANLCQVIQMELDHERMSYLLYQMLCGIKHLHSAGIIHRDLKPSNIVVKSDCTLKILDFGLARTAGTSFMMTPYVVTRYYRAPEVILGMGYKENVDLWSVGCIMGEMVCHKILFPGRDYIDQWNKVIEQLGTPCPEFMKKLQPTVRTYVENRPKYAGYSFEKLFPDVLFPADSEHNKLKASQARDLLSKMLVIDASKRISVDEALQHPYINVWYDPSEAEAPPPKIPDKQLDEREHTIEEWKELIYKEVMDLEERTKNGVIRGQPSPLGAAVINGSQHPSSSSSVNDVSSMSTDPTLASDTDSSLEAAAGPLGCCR", "assay_type": "functional"}, "[5]": {"target": "Tyrosine-protein kinase JAK2 (Homo sapiens, UniProt O60674)", "assay_type": "functional"}, "[6]": {"target": "Tyrosine-protein kinase JAK3 (Homo sapiens, UniProt P52333)", "sequence (P52333 whole entry)": "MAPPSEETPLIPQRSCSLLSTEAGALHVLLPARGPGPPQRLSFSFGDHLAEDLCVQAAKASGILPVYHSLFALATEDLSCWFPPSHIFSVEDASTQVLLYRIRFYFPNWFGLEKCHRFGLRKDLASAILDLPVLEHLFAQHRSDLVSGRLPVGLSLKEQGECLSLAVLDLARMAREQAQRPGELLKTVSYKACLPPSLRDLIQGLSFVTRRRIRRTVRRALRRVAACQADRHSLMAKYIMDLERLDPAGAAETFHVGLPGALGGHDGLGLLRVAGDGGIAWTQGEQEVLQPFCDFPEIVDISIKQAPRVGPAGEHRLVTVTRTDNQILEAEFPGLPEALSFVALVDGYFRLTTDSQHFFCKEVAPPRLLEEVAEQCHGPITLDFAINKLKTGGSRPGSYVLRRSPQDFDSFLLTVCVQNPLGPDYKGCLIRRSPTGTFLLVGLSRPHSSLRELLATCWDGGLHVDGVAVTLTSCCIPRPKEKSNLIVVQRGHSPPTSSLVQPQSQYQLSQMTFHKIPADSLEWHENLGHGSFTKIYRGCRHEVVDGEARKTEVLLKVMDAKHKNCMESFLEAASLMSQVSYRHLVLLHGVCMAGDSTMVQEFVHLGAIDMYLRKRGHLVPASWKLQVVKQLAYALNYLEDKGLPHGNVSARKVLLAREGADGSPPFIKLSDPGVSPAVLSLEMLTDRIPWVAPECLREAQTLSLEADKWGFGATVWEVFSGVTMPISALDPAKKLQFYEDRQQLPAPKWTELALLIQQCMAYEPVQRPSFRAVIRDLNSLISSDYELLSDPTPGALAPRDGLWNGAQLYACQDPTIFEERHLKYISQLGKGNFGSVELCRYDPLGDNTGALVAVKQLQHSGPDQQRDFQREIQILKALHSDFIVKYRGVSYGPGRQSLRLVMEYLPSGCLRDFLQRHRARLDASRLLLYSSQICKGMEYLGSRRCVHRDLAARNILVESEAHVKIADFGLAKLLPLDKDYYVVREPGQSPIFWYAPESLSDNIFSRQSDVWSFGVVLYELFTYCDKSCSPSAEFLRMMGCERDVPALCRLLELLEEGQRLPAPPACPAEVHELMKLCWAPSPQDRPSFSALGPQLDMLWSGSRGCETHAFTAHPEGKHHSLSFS", "assay_type": "functional"}, "[7]": {"target": "Dual specificity protein kinase CLK2 (Homo sapiens, UniProt P49760)", "sequence (P49760 whole entry)": "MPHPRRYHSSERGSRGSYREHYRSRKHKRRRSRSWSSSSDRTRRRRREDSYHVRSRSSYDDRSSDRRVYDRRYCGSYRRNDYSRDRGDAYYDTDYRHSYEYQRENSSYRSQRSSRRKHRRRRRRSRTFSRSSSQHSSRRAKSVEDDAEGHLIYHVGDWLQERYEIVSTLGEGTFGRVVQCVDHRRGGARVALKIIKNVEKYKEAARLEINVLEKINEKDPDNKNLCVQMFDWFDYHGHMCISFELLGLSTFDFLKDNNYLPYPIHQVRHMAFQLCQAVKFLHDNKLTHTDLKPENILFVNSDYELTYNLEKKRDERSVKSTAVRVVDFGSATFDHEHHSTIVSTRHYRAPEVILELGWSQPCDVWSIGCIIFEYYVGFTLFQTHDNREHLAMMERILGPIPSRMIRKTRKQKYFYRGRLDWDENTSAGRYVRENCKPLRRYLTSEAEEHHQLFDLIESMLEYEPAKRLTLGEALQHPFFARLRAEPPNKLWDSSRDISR", "assay_type": "functional"}, "[8]": {"target": "T1, cAMP-dependent protein kinase catalytic subunit PRKX (Homo sapiens, UniProt P51817)", "T1 sequence (P51817 whole entry)": "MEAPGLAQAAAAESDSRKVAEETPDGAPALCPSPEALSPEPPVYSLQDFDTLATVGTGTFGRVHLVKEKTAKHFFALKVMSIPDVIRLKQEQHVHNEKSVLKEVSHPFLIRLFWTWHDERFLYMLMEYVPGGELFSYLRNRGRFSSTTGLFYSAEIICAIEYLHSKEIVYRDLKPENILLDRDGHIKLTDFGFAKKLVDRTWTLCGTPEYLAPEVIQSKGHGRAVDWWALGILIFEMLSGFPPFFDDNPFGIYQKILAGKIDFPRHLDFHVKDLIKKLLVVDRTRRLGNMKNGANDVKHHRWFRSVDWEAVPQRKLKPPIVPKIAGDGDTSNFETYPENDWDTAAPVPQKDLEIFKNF", "assay_type": "functional"}, "[9]": {"target": "Tyrosine-protein kinase BTK (Homo sapiens, UniProt Q06187)", "assay_type": "functional"}, "[10]": {"target": "Fibroblast growth factor receptor 1 (Homo sapiens, UniProt P11362)", "assay_type": "functional"}, "[11]": {"target": "Insulin-like growth factor 1 receptor (Homo sapiens, UniProt P08069)", "assay": "Navigating the Kinome. Panel member name: IGF1R", "assay_type": "functional"}, "[12]": {"target": "ALK tyrosine kinase receptor (Homo sapiens, UniProt Q9UM73)", "sequence (Q9UM73 whole entry)": "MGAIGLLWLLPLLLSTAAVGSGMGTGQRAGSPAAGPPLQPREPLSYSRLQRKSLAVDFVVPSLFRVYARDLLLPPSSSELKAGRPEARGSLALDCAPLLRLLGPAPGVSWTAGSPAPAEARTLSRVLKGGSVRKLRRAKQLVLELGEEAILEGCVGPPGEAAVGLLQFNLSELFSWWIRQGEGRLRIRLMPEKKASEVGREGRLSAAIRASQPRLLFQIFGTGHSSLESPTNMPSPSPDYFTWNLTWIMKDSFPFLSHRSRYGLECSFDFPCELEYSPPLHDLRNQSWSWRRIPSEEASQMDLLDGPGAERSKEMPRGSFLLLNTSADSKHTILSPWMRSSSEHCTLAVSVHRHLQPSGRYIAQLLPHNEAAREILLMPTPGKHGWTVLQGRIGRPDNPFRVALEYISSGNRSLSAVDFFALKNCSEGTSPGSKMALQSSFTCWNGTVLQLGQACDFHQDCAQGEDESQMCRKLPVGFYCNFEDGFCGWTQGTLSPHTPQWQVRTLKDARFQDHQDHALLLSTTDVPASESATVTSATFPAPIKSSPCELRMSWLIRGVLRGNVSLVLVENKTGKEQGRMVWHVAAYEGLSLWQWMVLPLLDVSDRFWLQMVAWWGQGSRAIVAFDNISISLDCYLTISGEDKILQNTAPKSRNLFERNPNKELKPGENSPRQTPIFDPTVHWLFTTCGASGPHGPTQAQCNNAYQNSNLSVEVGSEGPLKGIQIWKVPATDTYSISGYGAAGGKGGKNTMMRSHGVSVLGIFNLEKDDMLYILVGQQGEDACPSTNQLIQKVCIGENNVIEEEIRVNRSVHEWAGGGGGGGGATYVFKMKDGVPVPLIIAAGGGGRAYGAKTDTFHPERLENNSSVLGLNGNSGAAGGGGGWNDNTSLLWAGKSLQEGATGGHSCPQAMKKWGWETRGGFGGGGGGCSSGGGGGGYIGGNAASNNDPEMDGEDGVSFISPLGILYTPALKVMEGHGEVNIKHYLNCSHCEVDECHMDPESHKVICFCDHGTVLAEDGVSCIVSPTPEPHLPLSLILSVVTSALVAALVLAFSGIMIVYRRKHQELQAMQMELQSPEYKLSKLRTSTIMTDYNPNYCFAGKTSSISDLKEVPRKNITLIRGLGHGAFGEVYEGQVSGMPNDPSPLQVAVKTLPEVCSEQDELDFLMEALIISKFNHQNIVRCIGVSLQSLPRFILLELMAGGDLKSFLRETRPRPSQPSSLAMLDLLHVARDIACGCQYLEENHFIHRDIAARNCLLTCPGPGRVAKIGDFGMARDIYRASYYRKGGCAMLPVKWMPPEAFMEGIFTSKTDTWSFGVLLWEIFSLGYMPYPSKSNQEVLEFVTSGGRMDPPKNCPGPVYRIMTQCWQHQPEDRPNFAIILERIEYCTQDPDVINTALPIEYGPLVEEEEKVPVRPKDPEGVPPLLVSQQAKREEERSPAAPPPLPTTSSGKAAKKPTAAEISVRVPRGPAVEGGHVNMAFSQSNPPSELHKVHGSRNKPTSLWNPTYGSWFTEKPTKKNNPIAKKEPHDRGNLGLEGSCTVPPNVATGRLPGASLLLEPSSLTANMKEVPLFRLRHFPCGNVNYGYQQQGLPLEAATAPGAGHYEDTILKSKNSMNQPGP", "assay_type": "functional"}, "INS1": {"test_system": "INS1", "assay": "beta cell apoptosis inhibitors, cytokine rescue, dose response, luminescence, retest (AID 449756);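 note: cell death triggered by IL-1 beta plus TNF-alpha plus IFN-gamma mixture; protective hits raise ATP signal compared with cytokine alone wells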", "assay_type": "functional, cell-based", "details": "Rattus norvegicus"}, "[13]": {"target": "T2, Apoptotic protease-activating factor 1 (Homo sapiens, UniProt O14727)", "T2 sequence (O14727 whole entry)": "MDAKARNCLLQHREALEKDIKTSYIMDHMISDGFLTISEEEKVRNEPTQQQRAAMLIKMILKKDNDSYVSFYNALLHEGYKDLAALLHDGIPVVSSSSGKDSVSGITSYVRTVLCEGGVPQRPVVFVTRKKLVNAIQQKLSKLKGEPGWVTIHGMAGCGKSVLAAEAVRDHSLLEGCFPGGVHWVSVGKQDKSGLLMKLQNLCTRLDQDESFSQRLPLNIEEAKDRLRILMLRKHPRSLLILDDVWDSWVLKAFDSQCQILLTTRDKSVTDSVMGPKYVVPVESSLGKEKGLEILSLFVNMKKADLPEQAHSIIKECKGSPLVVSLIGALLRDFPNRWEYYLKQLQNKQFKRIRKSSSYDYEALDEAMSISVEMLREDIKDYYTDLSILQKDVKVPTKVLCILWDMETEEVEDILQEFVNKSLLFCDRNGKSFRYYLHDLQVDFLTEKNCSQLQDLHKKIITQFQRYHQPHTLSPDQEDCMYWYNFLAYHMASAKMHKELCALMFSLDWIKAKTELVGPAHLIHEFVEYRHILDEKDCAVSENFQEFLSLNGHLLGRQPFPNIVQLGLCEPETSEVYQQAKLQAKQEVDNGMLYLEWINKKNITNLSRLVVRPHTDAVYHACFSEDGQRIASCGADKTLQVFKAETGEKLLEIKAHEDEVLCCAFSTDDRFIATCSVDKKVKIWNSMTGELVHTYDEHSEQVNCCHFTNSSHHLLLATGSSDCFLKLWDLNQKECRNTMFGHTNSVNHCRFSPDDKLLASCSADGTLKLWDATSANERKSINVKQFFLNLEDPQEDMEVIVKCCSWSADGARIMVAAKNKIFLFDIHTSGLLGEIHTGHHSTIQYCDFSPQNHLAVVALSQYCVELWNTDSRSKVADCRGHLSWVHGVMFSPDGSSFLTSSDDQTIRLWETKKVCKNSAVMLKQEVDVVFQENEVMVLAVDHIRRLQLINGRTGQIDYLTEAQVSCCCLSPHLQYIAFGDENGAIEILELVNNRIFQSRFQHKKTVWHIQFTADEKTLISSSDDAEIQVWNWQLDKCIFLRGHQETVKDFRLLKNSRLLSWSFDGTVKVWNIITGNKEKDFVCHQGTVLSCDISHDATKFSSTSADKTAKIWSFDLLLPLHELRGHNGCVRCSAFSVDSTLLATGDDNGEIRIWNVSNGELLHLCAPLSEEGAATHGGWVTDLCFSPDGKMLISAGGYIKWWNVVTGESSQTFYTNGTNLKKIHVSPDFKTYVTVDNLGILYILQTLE", "assay_type": "functional"}, "Caspase-3": {"target": "T3, Caspase-3 (Homo sapiens, UniProt P42574)", "T3 sequence (P42574 whole entry)": "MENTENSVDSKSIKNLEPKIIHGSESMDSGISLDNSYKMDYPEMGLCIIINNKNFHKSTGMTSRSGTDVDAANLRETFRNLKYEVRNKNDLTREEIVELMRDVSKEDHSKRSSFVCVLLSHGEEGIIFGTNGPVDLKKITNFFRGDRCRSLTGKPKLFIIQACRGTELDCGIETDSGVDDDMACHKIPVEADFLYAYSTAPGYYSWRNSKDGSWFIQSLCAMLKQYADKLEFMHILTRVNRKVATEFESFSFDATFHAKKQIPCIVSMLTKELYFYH", "assay_type": "functional"}, "[14]": {"target": "Glucose-6-phosphate 1-dehydrogenase (Homo sapiens, UniProt P11413)", "sequence (P11413 whole entry)": "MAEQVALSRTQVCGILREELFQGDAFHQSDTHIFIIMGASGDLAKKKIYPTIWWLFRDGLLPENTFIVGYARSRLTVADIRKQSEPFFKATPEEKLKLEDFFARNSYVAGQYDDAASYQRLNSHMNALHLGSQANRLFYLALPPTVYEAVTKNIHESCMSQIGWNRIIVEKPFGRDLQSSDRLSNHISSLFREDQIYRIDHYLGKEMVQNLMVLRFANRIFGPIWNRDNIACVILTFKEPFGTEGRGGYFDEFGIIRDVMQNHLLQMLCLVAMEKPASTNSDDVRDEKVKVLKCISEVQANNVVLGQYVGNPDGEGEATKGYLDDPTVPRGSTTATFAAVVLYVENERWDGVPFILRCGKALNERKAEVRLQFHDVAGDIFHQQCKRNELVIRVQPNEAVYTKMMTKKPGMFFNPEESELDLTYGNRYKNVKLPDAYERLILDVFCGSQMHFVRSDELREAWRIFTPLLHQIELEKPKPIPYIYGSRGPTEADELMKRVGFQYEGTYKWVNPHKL", "assay": "human G6PD enzyme inhibitors, dose response, selectivity assay for P. falciparum G6PD inhibitor project, biochemical, fluorescence (AID 504792)", "assay_type": "functional"}, "[15]": {"test_system": "Streptococcus sp. 'group A'", "assay": "growth inhibition of control SK(-) GAS strain, dose response, counter-screen for streptokinase expression inhibitor project, luminescence, kanamycin, BacTiterGlo, confirmation (AID 1900)", "assay_type": "functional, organism-based"}}, "note": "Active and inactive are the calls of the source."}
{"smiles": "CCn1c(-c2nonc2N)nc2cncc(C(=O)N3CCC(N)C3)c21", "note": "(centres undefined)", "values": [{"measurement": "Ki", "setting": "[1]", "result": "2000 nM (active)"}, {"measurement": "Ki", "setting": "[2]", "result": "> 2510 nM (inactive)"}, {"measurement": "Ki", "setting": "[3]", "result": "79.4 nM (active)"}, {"measurement": "Ki", "setting": "[4]", "result": "> 5010 nM (inactive)"}, {"measurement": "Ki", "setting": "[5]", "result": "> 2510 nM (inactive)"}, {"measurement": "Ki", "setting": "[6]", "result": "> 5010 nM (inactive)"}, {"measurement": "Ki", "setting": "[7]", "result": "1000 nM (active)"}, {"measurement": "Ki", "setting": "[8]", "result": "20 nM (active)"}, {"measurement": "Ki", "setting": "[9]", "result": "> 6310 nM (inactive)"}, {"measurement": "Ki", "setting": "[10]", "result": "> 3980 nM (inactive)"}, {"measurement": "Ki", "setting": "[11]", "result": "> 2510 nM (inactive)"}, {"measurement": "Ki", "setting": "[12]", "result": "> 6310 nM (inactive)"}]}
{"smiles": "COC(=O)c1ccccc1NC1=C/C(=N\\S(=O)(=O)c2cccs2)c2ccccc2C1=O", "values": [{"measurement": "AC50", "setting": "INS1", "result": "2190 nM (active)"}, {"measurement": "IC50", "setting": "[13]", "result": "1820 nM (active)"}, {"measurement": "IC50", "setting": "Caspase-3", "result": "68400 nM (active)"}, {"measurement": "IC50", "setting": "[14]", "result": "27200 nM (inactive)"}]}
{"smiles": "Cc1cc(C)c[n+](C2=C([N-]S(=O)(=O)c3cccs3)C(=O)c3ccccc3C2=O)c1", "values": [{"measurement": "AC50", "setting": "INS1", "result": "3120 nM (active)"}, {"measurement": "EC50", "setting": "[15]", "result": "941 nM (active)"}, {"measurement": "IC50", "setting": "Caspase-3", "result": "81900 nM (active)"}, {"measurement": "IC50", "setting": "[14]", "result": "> 80000 nM (inactive)"}]}
{"smiles": "Cc1[nH]nc2ccc(-c3cncc(OCC(N)Cc4c[nH]c5ccccc45)c3)cc12", "note": "(centres undefined)", "values": [{"measurement": "Ki", "setting": "[1]", "result": "398 nM (active)"}, {"measurement": "Ki", "setting": "[2]", "result": "25.1 nM (active)"}, {"measurement": "Ki", "setting": "[3]", "result": "100 nM (active)"}, {"measurement": "Ki", "setting": "[4]", "result": "1580 nM (active)"}, {"measurement": "Ki", "setting": "[5]", "result": "> 1580 nM (inactive)"}, {"measurement": "Ki", "setting": "[6]", "result": "316 nM (active)"}, {"measurement": "Ki", "setting": "[7]", "result": "3.16 nM (active)"}, {"measurement": "Ki", "setting": "[8]", "result": "63.1 nM (active)"}, {"measurement": "Ki", "setting": "[9]", "result": "> 1260 nM (inactive)"}, {"measurement": "Ki", "setting": "[10]", "result": "3160 nM (active)"}, {"measurement": "Ki", "setting": "[11]", "result": "> 2000 nM (inactive)"}, {"measurement": "Ki", "setting": "[12]", "result": "> 1260 nM (inactive)"}]}
{"smiles": "CCCCCCCCCCC[N+](C)(C)CC/C=C1/c2ccccc2Sc2ccc(Cl)cc21", "values": [{"measurement": "EC50", "setting": "[15]", "result": "1460 nM (active)"}, {"measurement": "IC50", "setting": "[13]", "result": "11600 nM (active)"}]}
